The record followed here is patent publication US7414064B2, “4-(3,3-dihalo-allyloxy) phenoxy alkyl derivatives” (Syngenta Crop Protection, Inc., priority 2002, dated 2008).

SMILES strings stand for the structures.

Test system in one series: not given
Test: not given
Conditions: not given
Consider `O=C(Nc1ccc(OCCCOc2c(Cl)cc(OCC=C(Cl)Cl)cc2Cl)cc1)c1ccccc1Cl` [Compound 1.19], for which the melting point was in the range of 107 to 111 °C. As for `Cc1ccccc1C(=O)Nc1ccc(OCCCOc2c(Cl)cc(OCC=C(Cl)Cl)cc2Cl)cc1` [Compound 1.20], the melting point fell in the range of 89 to 92 °C. Still for that read-out and setting: then `O=C(Nc1ccc(OCCCOc2c(Cl)cc(OCC=C(Cl)Cl)cc2Cl)cc1)c1ccccc1Br` [Compound 1.21], with 112 to 114 °C; and `O=C(Nc1ccc(OCCCOc2c(Cl)cc(OCC=C(Cl)Cl)cc2Cl)cc1)c1c(F)cccc1F` [Compound 1.22], with 95 to 97 °C. Still for that read-out and setting: the same measure for `O=C(Nc1ccc(OCCCOc2c(Cl)cc(OCC=C(Cl)Cl)cc2Cl)cc1)c1ccc(F)cc1F` [Compound 1.23]: 89 to 91 °C; for `O=C(Nc1ccc(OCCCOc2c(Cl)cc(OCC=C(Cl)Cl)cc2Cl)cc1)c1ccccc1C(F)(F)F` [Compound 1.24]: 118 to 121 °C. Consider `O=C(Nc1ccc(OCCCOc2c(Cl)cc(OCC=C(Cl)Cl)cc2Cl)cc1)c1ccco1` [Compound 1.25], for which the melting point is 108 to 113 °C. Same read-out and setting: then `O=C(Nc1ccc(OCCCOc2c(Cl)cc(OCC=C(Cl)Cl)cc2Cl)cc1)c1cccs1` [Compound 1.26], with 83 to 90 °C.

The next series concerns Heliothis virescens. Kind of series: Action against Heliothis virescens caterpillars (sprayed soybean plants). In kind it is in vivo. Conditions: 144 h, 400 ppm spray mixture, caterpillars in the first stage, evaluation 6 days later, read-out: percentage reduction in population and percentage reduction in feeding damage (% activity). The protocol:
Young soybean plants are sprayed with an aqueous emulsion spray mixture comprising 400 ppm of test compound. After the spray-coating has dried, the soybean plants are populated with 10 caterpillars of Heliothis virescens in the first stage and placed in a plastics container. Evaluation is made 6 days later. The percentage reduction in population and the percentage reduction in feeding damage (% activity) are determined by comparing the number of dead caterpillars and the feeding damage on the treated plants with that on the untreated plants.
In the case of `COC(=O)Nc1ccc(OCCCOc2c(Cl)cc(OCC=C(Cl)Cl)cc2Cl)cc1` [Compound 1.3], the inhibition at 400 ppm is > 80%. Same read-out and setting: the same measure for `CCOC(=O)Nc1ccc(OCCCOc2c(Cl)cc(OCC=C(Cl)Cl)cc2Cl)cc1` [Compound 1.4]: > 80%; for `CC(C)(C)OC(=O)Nc1ccc(OCCCOc2c(Cl)cc(OCC=C(Cl)Cl)cc2Cl)cc1` [Compound 1.6, (4-{3-[2,6-Dichloro-4-(3,3-dichloroallyloxy)-phenoxy]-propoxy}-phenyl)-carbamic acid tert-butyl ester]: > 80%. As to `C#CCOC(=O)Nc1ccc(OCCCOc2c(Cl)cc(OCC=C(Cl)Cl)cc2Cl)cc1` [Compound 1.10], the inhibition at 400 ppm was > 80%.

As usually defined, the melting point is the temperature of the solid-liquid transition.
